Test results as given in ChEMBL document CHEMBL3991601, “The target landscape of clinical kinase drugs” (Science, 2017).
The source made the active and inactive calls. Cut-off read from the data, not from the text of the source, for most assays here: actives have a measured Kd and inactives only a lower limit.

Experiments:
[1] = biological target: T1, Membrane-associated tyrosine- and threonine-specific cdc2-inhibitory kinase (Homo sapiens, UniProt Q99640)
T1 sequence (Q99640 whole entry): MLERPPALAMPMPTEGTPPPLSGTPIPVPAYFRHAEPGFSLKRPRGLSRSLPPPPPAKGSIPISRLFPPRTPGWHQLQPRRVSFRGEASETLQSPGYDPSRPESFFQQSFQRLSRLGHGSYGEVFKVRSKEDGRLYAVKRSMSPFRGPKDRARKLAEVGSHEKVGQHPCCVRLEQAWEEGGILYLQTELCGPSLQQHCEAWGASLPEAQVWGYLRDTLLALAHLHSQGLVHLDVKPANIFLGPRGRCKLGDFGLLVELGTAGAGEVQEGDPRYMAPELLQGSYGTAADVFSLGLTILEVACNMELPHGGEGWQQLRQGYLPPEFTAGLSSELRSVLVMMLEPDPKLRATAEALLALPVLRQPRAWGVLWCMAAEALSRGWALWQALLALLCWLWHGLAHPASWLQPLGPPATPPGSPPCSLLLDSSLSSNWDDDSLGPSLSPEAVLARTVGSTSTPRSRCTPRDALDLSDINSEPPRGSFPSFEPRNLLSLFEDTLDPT

Scaffold protein ILK = biological target: T2, Scaffold protein ILK (Homo sapiens, UniProt Q13418)
T2 sequence (Q13418 whole entry): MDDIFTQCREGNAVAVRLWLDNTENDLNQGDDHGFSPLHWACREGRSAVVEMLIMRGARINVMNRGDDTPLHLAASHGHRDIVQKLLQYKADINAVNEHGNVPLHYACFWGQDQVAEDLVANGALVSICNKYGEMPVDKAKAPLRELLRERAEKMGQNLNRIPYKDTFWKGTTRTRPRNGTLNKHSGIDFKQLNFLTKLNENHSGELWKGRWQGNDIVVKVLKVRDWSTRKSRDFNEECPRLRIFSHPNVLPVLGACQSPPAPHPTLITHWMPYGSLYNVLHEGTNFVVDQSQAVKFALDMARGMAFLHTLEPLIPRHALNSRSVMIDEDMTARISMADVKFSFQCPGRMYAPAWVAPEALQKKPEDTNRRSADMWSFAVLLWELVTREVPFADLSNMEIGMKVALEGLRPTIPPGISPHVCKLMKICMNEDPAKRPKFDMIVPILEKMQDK

[2] = biological target: Serine/threonine-protein kinase MRCK alpha (Homo sapiens, UniProt Q5VT25)
[3] = biological target: T3, Mitogen-activated protein kinase 15 (Homo sapiens, UniProt Q8TD08)
T3 sequence (Q8TD08 whole entry): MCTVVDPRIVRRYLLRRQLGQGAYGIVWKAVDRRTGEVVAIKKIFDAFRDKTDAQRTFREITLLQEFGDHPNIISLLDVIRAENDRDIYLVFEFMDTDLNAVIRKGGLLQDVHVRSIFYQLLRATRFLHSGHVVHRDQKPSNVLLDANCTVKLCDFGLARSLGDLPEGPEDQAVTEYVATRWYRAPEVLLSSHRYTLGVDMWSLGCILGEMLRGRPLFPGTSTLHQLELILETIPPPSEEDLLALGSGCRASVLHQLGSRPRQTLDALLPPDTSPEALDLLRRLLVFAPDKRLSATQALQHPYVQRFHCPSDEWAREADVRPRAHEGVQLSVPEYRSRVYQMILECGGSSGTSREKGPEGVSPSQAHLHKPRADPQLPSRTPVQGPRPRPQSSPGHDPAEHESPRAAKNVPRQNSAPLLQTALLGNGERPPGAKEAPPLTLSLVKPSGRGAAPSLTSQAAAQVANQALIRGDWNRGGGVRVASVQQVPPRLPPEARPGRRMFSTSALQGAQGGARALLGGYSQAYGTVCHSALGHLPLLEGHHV

[4] = biological target: Macrophage-stimulating protein receptor (Homo sapiens, UniProt Q04912)
[5] = biological target: Tyrosine-protein kinase ABL1 (Homo sapiens, UniProt P00519)
[6] = biological target: T4, EKC/KEOPS complex subunit TP53RK (Homo sapiens, UniProt Q96S44)
T4 sequence (Q96S44 whole entry): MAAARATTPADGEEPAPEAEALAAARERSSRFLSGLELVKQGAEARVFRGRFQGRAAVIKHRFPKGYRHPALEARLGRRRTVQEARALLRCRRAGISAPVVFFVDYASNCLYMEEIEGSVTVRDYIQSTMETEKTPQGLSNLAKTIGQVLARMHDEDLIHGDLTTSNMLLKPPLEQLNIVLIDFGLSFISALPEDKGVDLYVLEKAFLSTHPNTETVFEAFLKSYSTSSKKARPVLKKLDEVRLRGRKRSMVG

[7] = biological target: Mitogen-activated protein kinase 9 (Homo sapiens, UniProt P45984)
Glycine--tRNA ligase = biological target: T5, Glycine--tRNA ligase (Homo sapiens, UniProt P41250)
T5 sequence (P41250 whole entry): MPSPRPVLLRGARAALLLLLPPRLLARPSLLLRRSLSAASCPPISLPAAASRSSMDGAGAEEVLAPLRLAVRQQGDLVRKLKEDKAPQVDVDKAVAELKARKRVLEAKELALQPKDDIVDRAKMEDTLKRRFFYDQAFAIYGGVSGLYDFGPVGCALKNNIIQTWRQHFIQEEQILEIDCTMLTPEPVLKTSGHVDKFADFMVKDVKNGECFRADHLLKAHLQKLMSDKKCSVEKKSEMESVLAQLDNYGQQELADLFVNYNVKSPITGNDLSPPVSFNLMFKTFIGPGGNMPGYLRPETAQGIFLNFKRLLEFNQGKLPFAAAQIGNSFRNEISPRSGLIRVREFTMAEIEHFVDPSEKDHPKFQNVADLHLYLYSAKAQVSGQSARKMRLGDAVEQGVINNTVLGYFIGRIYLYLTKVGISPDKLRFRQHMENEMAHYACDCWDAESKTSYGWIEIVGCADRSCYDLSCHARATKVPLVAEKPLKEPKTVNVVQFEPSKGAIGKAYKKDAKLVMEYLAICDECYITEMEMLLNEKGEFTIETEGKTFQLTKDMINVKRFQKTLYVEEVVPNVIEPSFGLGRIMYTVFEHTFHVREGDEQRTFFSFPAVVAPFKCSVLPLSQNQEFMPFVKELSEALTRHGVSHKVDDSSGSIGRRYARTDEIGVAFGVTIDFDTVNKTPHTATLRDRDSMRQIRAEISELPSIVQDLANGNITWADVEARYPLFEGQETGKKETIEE
Note: in the data inactive means no Kd found up to 30 µM.

Macrophage-stimulating protein receptor, sequence (Q04912 25-304 limits assumed): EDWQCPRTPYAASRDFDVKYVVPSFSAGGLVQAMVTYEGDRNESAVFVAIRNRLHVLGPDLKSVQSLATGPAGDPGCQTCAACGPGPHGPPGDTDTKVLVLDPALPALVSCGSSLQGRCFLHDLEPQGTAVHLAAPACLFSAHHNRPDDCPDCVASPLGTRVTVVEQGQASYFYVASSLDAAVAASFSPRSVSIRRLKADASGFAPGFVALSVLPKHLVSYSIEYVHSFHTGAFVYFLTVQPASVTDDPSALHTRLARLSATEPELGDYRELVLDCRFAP
Macrophage-stimulating protein receptor, sequence (Q04912 310-1400 limits assumed): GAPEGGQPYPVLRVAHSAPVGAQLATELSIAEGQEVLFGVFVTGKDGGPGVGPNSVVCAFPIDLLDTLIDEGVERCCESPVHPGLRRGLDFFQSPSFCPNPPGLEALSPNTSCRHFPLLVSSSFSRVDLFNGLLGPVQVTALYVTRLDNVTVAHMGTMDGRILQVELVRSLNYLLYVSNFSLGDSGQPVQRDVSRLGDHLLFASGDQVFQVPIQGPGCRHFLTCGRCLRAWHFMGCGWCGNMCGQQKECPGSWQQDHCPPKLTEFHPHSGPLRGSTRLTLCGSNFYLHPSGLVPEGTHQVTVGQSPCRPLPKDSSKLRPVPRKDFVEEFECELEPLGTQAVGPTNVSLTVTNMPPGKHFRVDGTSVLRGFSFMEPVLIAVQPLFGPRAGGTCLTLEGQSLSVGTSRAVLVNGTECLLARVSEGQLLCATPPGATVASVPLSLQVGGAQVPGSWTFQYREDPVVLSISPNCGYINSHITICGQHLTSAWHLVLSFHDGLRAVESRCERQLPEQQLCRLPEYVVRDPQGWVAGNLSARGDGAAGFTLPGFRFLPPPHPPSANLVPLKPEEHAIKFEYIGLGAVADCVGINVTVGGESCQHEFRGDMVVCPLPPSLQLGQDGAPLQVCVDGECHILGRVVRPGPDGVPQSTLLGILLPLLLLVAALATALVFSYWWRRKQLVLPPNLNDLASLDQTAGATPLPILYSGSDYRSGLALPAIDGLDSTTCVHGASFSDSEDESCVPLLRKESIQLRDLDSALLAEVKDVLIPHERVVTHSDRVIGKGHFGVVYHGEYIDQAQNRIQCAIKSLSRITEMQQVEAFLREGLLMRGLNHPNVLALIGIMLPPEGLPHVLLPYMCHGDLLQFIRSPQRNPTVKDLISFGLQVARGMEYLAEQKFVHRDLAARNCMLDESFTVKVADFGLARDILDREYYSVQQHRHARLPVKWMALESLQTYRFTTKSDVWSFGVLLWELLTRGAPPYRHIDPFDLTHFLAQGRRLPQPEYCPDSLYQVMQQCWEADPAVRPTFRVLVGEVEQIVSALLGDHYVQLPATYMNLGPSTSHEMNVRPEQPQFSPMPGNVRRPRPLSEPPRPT
Mitogen-activated protein kinase 9, sequence (P45984 whole entry): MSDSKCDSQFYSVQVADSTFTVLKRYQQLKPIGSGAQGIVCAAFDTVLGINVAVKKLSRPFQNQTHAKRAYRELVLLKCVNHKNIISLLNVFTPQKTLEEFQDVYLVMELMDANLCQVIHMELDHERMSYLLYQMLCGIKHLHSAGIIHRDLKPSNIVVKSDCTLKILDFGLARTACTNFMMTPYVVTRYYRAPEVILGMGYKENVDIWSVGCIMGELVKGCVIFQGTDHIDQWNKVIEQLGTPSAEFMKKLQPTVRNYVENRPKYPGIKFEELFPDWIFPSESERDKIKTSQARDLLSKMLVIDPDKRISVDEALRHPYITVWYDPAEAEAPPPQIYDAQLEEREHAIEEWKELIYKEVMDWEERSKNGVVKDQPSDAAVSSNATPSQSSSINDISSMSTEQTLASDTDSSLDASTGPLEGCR
Tyrosine-protein kinase ABL1, sequence (P00519 whole entry): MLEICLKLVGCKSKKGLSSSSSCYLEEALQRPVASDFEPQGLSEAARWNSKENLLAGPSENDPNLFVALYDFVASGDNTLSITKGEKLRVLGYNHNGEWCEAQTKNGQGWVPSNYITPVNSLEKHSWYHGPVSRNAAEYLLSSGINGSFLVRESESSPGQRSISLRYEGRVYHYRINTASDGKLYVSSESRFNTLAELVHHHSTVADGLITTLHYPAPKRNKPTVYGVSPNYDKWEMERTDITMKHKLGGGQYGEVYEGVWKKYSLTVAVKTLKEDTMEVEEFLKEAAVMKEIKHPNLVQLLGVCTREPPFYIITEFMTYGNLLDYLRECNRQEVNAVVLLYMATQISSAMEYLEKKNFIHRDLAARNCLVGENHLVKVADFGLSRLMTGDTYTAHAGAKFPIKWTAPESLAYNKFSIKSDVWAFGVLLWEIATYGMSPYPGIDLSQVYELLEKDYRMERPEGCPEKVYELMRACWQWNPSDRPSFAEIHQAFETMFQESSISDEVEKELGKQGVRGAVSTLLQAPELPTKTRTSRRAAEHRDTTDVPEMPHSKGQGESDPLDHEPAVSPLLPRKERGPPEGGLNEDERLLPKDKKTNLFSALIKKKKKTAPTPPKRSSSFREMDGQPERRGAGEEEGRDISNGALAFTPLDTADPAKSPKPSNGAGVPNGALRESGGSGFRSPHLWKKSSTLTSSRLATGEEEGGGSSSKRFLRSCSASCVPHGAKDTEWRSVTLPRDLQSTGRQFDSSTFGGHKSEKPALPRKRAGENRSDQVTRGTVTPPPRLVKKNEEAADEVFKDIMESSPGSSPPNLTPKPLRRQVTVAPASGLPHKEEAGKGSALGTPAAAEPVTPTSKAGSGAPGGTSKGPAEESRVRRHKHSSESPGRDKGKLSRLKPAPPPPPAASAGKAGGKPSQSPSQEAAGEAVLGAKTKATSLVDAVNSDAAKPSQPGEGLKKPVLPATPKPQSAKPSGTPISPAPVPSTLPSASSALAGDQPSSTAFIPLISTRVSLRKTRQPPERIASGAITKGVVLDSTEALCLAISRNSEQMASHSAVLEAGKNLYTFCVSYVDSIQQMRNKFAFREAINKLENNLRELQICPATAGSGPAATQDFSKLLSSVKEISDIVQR
Serine/threonine-protein kinase MRCK alpha, sequence (Q5VT25 whole entry): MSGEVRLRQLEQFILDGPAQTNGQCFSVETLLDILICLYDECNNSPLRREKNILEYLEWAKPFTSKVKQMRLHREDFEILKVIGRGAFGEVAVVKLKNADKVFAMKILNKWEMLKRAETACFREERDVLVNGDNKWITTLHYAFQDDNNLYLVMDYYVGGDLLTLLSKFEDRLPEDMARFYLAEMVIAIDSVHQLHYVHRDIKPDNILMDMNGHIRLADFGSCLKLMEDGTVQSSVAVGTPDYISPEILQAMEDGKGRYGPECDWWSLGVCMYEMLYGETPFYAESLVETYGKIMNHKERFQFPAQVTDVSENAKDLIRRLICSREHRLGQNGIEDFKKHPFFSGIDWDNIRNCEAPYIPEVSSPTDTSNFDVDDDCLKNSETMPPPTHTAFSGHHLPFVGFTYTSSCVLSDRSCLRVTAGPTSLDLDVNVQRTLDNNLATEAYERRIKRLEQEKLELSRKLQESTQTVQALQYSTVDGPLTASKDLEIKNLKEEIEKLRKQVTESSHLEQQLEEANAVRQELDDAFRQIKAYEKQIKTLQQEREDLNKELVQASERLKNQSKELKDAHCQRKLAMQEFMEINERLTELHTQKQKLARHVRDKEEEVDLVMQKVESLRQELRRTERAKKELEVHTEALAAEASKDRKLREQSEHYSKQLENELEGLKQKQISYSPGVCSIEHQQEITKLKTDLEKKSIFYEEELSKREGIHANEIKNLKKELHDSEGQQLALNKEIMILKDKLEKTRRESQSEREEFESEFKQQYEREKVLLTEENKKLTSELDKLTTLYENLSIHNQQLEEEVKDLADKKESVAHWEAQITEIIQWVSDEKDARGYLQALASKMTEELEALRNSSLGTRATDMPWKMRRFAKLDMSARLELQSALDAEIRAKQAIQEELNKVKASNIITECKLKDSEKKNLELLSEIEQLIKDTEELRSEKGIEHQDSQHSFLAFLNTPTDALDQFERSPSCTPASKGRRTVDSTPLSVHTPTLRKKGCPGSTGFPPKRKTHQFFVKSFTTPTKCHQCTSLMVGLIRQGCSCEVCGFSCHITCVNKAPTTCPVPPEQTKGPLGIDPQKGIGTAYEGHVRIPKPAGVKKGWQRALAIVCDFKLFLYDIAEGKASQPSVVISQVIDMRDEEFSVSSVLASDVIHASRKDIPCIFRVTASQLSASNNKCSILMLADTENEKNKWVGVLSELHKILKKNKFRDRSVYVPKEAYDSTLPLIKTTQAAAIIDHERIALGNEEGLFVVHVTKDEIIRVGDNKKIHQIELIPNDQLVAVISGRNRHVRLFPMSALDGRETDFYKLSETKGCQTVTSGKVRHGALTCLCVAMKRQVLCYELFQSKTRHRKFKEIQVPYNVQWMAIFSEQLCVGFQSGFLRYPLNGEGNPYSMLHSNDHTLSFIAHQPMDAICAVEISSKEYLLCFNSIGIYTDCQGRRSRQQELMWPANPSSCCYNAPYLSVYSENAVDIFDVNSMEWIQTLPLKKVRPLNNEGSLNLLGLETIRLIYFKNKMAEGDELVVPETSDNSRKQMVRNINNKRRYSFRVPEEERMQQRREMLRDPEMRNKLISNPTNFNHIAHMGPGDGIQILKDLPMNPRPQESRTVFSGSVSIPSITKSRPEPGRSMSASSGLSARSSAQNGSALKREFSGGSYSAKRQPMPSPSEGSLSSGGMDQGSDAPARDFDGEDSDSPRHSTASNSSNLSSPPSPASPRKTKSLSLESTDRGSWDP

| SMILES | Kd [1] | Kd (Scaffold protein ILK) | Kd [2] | Kd [4] | Kd [5] | Kd [6] | Kd [7] | Kd (Glycine--tRNA ligase) | Kd [3] |
| --- | --- | --- | --- | --- | --- | --- | --- | --- | --- |
| C[C@@H]1CN(Cc2ccc(F)cc2)[C@@H](C)CN1C(=O)c1cc2c(C(=O)C(=O)N(C)C)cn(C)c2cc1Cl [TALMAPIMOD] | > 30 µM (inactive) | > 30 µM (inactive) | > 30 µM (inactive) | > 30 µM (inactive) | > 30 µM (inactive) | > 30 µM (inactive) | > 30 µM (inactive) | > 30 µM (inactive) | > 30 µM (inactive) |
| CN1CCC(COc2cnc(-c3cccc(Cn4nc(-c5cccc(C#N)c5)ccc4=O)c3)nc2)CC1 [TEPOTINIB] | > 30 µM (inactive) | > 30 µM (inactive) | > 30 µM (inactive) | > 30 µM (inactive) | > 30 µM (inactive) | > 30 µM (inactive) | > 30 µM (inactive) | > 30 µM (inactive) | > 30 µM (inactive) |
| CCCS(=O)(=O)Nc1ccc(F)c(C(=O)c2c[nH]c3ncc(-c4ccc(Cl)cc4)cc23)c1F [VEMURAFENIB] | > 30 µM (inactive) | > 30 µM (inactive) | > 30 µM (inactive) | > 30 µM (inactive) | > 30 µM (inactive) | > 30 µM (inactive) | > 30 µM (inactive) | > 30 µM (inactive) | > 30 µM (inactive) |
| O=C(Nc1ccc(-c2ccnc(Nc3ccc(N4CCOCC4)cc3)n2)cc1)C1CCCN1 (configuration not stated) [XL-019] | > 30 µM (inactive) | > 30 µM (inactive) | > 30 µM (inactive) | > 30 µM (inactive) | > 30 µM (inactive) | > 30 µM (inactive) | > 30 µM (inactive) | > 30 µM (inactive) | > 30 µM (inactive) |

Second part, led by results:

| Kd [1] | Kd (Scaffold protein ILK) | Kd [2] | Kd [4] | Kd [5] | Kd [6] | Kd [7] | Kd (Glycine--tRNA ligase) | SMILES | Kd [3] |
| --- | --- | --- | --- | --- | --- | --- | --- | --- | --- |
| > 30 µM (inactive) | > 30 µM (inactive) | > 30 µM (inactive) | > 30 µM (inactive) | > 30 µM (inactive) | > 30 µM (inactive) | > 30 µM (inactive) | > 30 µM (inactive) | CC(=O)Nc1cccc(-n2c(=O)n(C3CC3)c(=O)c3c(Nc4ccc(I)cc4F)n(C)c(=O)c(C)c32)c1 [TRAMETINIB] | > 30 µM (inactive) |
| > 30 µM (inactive) | > 30 µM (inactive) | > 30 µM (inactive) | > 30 µM (inactive) | > 30 µM (inactive) | > 30 µM (inactive) | > 30 µM (inactive) | > 30 µM (inactive) | CC(C)Nc1cc(-c2c[nH]c(C(=O)N[C@H](CO)c3cccc(Cl)c3)c2)c(Cl)cn1 [ULIXERTINIB] | > 30 µM (inactive) |
| > 30 µM (inactive) | > 30 µM (inactive) | > 30 µM (inactive) | > 30 µM (inactive) | > 30 µM (inactive) | > 30 µM (inactive) | > 30 µM (inactive) | > 30 µM (inactive) | CC[C@@H]1C(=O)N(C)c2cnc(Nc3ccc(C(=O)N[C@H]4CC[C@H](N5CCN(CC6CC6)CC5)CC4)cc3OC)nc2N1C(C)C [VOLASERTIB] | > 30 µM (inactive) |
| > 30 µM (inactive) | > 30 µM (inactive) | > 30 µM (inactive) | > 30 µM (inactive) | > 30 µM (inactive) | > 30 µM (inactive) | > 30 µM (inactive) | > 30 µM (inactive) | CCn1c(=O)c(-c2cc[nH]n2)cc2c(C)nc(N)nc21 [VOXTALISIB] | > 30 µM (inactive) |
